In patent EP4541351A1, “COMPOUNDS AND COMBINATION AS STIMULATORS OF COLLAGEN SYNTHESIS” (Center for Intelligent Research in Crystal Engineering, S.L., priority 2023, dated 2025):

Assays:
[1] = test system: Immortalized Human Gingival Fibroblasts-hTERT (iHGF); test: Total collagen deposition (Sirius red staining) after UVA irradiation; format: cell-based; conditions: 7 days after irradiation and treatment
Description: Collagen deposition was determined according to Walsh et al 1992. […] Collagen was stained with Sirius red F3BA 0.1% in saturated picric acid for 1 hour. Unbound dye was removed by washing with 10 mM HCl, and dye was solubilized with 100 mM NaOH. Absorbance was measured with a microplate reader at 540 nm. Non-treated cells were set as 100%.

[2] = test system: Immortalized Human Gingival Fibroblasts-hTERT (iHGF); test: Metabolic activity (PrestoBlue cell viability) after UVA irradiation; conditions: 24 h after irradiation and after 7 days of culture and treatment
Description: Immortalized Human Gingival Fibroblasts-hTERT (iHGF) (Applied Biological Materials Inc) were used for the experiments. Cells were grown at 37 °C in an atmosphere of 5% CO2 using complete fibroblast cell culture medium that consists in Dulbecco's modified Eagle's medium (DMEM) low glucose (Biowest)/Ham's F12 (3/1) (Biowest), supplemented with 10% (v/v) fetal bovine serum embryonic stem cells tested (FBS) (Biowest), 100 g/mL penicillin and 100 g/mL streptomycin (Biowest).
iHGF were seeded (7 000 cells/well) in 96-well plates (white and transparent tissue culture test-plates) and at confluence, cells were treated with different concentrations (0.1; 1; 10; 50; 75 and 100 µM) of Pteroyouth®, pterostilbene or silybin in complete fibroblast cell culture medium as described above. […] To measure cell viability, cell culture media and treatments were added again to the cells and metabolic activity was measured 24 h after irradiation. […] Cell viability was determined again at day 7, and cell monolayer was used to quantify collagen deposition. […]
Total metabolic activity was evaluated using the PrestoBlue™ Cell Viability Reagent (Invitrogen, Catalog Number A13261; Life Technologies, Carlsbad, CA, USA), which is used to measure the metabolic activity of cells, being an indicator of their overall health and functionality. […]

| SMILES | total collagen deposition compared to both C and CuVA ([1]; 0.1 µM) | total collagen deposition compared to both C and CuVA ([1]; 1 µM) | total collagen deposition compared to both C and CuVA ([1]; 10 µM) | metabolic activity (cell viability) ([2]; 0.1 µM) | metabolic activity (cell viability) ([2]; 1 µM) |
| --- | --- | --- | --- | --- | --- |
| COc1cc(C2Oc3cc([C@H]4Oc5cc(O)cc(O)c5C(=O)[C@@H]4O)ccc3OC2CO)ccc1O (stereo partly drawn) [silybin] | higher collagen deposition | higher collagen deposition | higher collagen deposition | – | – |
| COc1cc(/C=C/c2ccc(O)cc2)cc(OC)c1 [pterostilbene, trans-3,5-dimethoxy-4-hydroxystilbene] | – | higher collagen deposition | – | maintain cell viability | maintain cell viability |
